Measured values: paper PMC8401404 (Molecules, 2021)
Structures can show the parent of a compound that is named as a salt. Each block holds one compound with its values, some of them ahead of it.

Experiments:
[1] = tested on: poly dA-poly dT (DNA, polymer) A/T; test: CD titration; conditions: Na+ (sodium cacodylate, I = 0.05 M), pH 7.0, 25 °C, polynucleotide 3.0 × 10^-5 M
[2] = tested on: poly dA-poly dT (DNA, polymer) A/T; test: UV thermal melting at 260 nm; conditions: Na+ (sodium cacodylate, I = 0.05 M), pH 7.0, r = [compound]/[polynucleotide phosphate] = 0.3, error ±0.5, per base
[3] = tested on: poly(dAdT)2 (DNA, polymer) AT; test: UV thermal melting at 260 nm; conditions: Na+ (sodium cacodylate, I = 0.05 M), pH 7.0, r = [compound]/[polynucleotide phosphate] = 0.3, error ±0.5, per base
[4] = tested on: poly(dAdT)2 (DNA, polymer) AT; test: CD titration; conditions: Na+ (sodium cacodylate, I = 0.05 M), pH 7.0, 25 °C, polynucleotide 3.0 × 10^-5 M
HCC827 [5] = test: Cytotoxicity (viability) assay, 3D hanging drop cell culture; conditions: read-out: Cytotoxicity Assay IC50 ± SD; HCC827 3D; HCC827, 3D hanging drop spheres, 72 h; n = 2
NCI-H358 [6] = test: as above; conditions: read-out: Cytotoxicity Assay IC50 ± SD; NCI-H358 3D; NCI-H358, 3D hanging drop spheres, 72 h; n = 2
A549 [7] = test: as above; conditions: read-out: Cytotoxicity Assay IC50 ± SD; A549 3D; A549, 3D hanging drop spheres, 72 h; n = 2
S. aureus ATCC 29213 = test: Broth microdilution testing (CLSI); format: cell-based, Staphylococcus aureus; conditions: broth microdilution, 16–24h at 37 °C; read-out: MIC S. aureus ATCC 29213
Experimental: (§1) Broth microdilution testing was performed according to CLSI (Clinical Laboratory Standards Institute) guidelines. MIC (minimal inhibitory concentration) value was defined as the last tested concentration of compound at which there is no visible growth of bacteria. […] Clinical and Laboratory Standards Institute (CLSI) guidelines.

HCC827 [8] = test: BrdU proliferation assay, 2D cell culture; format: cell-based, human; conditions: HCC827, 2D, BrdU, n = 2, read-out: Proliferation Assay IC50 ± SD
NCI-H358 [9] = test: BrdU proliferation assay, 2D cell culture; format: cell-based, human; conditions: NCI-H358, 2D, n = 2, read-out: Proliferation Assay IC50 ± SD
A549 [10] = test: BrdU proliferation assay, 2D cell culture; format: cell-based, human; conditions: A549, 2D, BrdU, n = 2, read-out: Proliferation Assay IC50 ± SD
HCC827 [11] = test: BrdU proliferation assay, 3D hanging drop cell culture; format: cell-based, human; conditions: HCC827, 3D, BrdU, n = 2, read-out: Proliferation Assay IC50 ± SD
NCI-H358 [12] = test: as above; format: cell-based, human; conditions: NCI-H358, 3D, n = 2, read-out: Proliferation Assay IC50 ± SD
A549 [13] = test: as above; format: cell-based, human; conditions: A549, 3D, BrdU, n = 2, read-out: Proliferation Assay IC50 ± SD
[14] = tested on: human lung fibroblast cell line MRC-5; test: MTS cytotoxicity assay, 2D cell culture, normal lung fibroblasts; conditions: read-out: Cytotoxicity Assay IC50 ± SD; MRC-5 2D; MRC-5 normal lung fibroblasts, 2D, 72 h, MTS; n = 2
S. cerevisiae ATCC 7752 = test: Broth microdilution testing (CLSI); format: cell-based, Saccharomyces cerevisiae; conditions: broth microdilution, 16–24h at 37 °C; read-out: MIC S. cerevisiae ATCC 7752
Experimental: as §1

HCC827 [15] = test: MTS cytotoxicity assay, 2D cell culture; conditions: read-out: Cytotoxicity Assay IC50 ± SD; HCC827 2D, 72 h, MTS; n = 2
NCI-H358 [16] = test: MTS cytotoxicity assay, 2D cell culture; conditions: read-out: Cytotoxicity Assay IC50 ± SD; NCI-H358 2D, 72 h, MTS; n = 2
A549 [17] = test: MTS cytotoxicity assay, 2D cell culture; conditions: read-out: Cytotoxicity Assay IC50 ± SD; A549 2D, 72 h, MTS; n = 2
E. coli ATCC 25922 = test: Broth microdilution testing (CLSI); format: cell-based, Escherichia coli; conditions: broth microdilution, 16–24h at 37 °C; read-out: MIC E. coli ATCC 25922
Experimental: as §1

binding [1]: yes
ΔTm [2]: 11.7 °C
ΔTm [3]: 6.2 °C
binding [4]: yes
melting point: 262 to 269 °C
Structure (SMILES): Clc1ccc(-c2ccc(-c3nc4cc(C5=NCCN5)ccc4[nH]3)o2)cc1 (as salt: hydrochloride) [Compound 15, 2-[5-(4-Chlorophenyl)furan-2-yl]-5(6)-(4,5-dihydro-1H-imidazol-2-yl)benzimidazole hydrochloride]

Structure (SMILES): N#CC(=Cc1ccc(-c2ccc(Cl)cc2)o1)c1nc2cc([N+](=O)[O-])ccc2[nH]1 [Compound 21, (E,Z)-3-[5-(4-Chlorophenyl)furan-2-yl]-2-(5(6)-nitrobenzimidazol-2-yl)acrylonitrile]
IC50 (HCC827 [5]): > 100 µM
IC50 (NCI-H358 [6]): > 100 µM
IC50 (A549 [7]): > 100 µM
MIC (S. aureus ATCC 29213): >100 µM
IC50 (HCC827 [8]): > 50 µM
IC50 (NCI-H358 [9]): > 50 µM
IC50 (A549 [10]): > 50 µM
IC50 (HCC827 [11]): > 100 µM
IC50 (NCI-H358 [12]): > 100 µM
IC50 (A549 [13]): > 100 µM
IC50 [14]: > 50 µM
MIC (S. cerevisiae ATCC 7752): >100 µM
IC50 (HCC827 [15]): > 50 µM
IC50 (NCI-H358 [16]): 3.58 ± 0.95 µM
IC50 (A549 [17]): > 50 µM
MIC (E. coli ATCC 25922): >100 µM
